Laboratory results: patent US11986450B2, “Methods and compositions for treating infection and inflammation with selenocyanate” (National Jewish Health, priority 2017, dated 2024)

Key:
DmTrxR (containing Cys) = DmTrxR (containing Cys) (Drosophila melanogaster, UniProt P91938); assay: Inactivation of TrxR by oxidants; assay type: biochemical
Method: (§1) Based on data, it is expected that Sec-TrxR1 is able to metabolize both HOSCN and HOSeCN but not HOCl, and that Cys-TrxR's is unable to metabolize these oxidants. The active site Cys or Sec residue of each respective enzyme is oxidized to either Cys-SO2^− or Sec-SeO2^−. The Cys-TrxR cannot recover from this oxidation while the Sec-TrxR can. To test this, an inactivation assay is performed followed by structural analysis of the protein by MS. In the inactivation assay, (i) enzymes are reduced with NADPH, (ii) the enzymes are treated with oxidant followed by desalting to remove oxidant, and (iii) the enzyme is assayed for activity. […] The proteins are proteolyzed followed by LC-MS analyses. The LC-MS profiles are compared to control samples not treated with oxidant. This determines the exact mechanism of inactivation for each enzyme. […] This would explain why HOCl is highly inflammatory (nonspecific oxidation), and why HOSCN is used as a bactericide because it can rapidly inactivate proteins/enzyme by oxidation of sulfur amino acids (Cys, Met), but can be metabolized by the host cell by Sec-TrxR.

[1] = molecular target: Sec-containing TrxR2 (Sec-TrxR2) (Mus musculus, UniProt Q9JLT4); assay: Inactivation of TrxR by oxidants; assay type: biochemical
Sequence of Sec-containing TrxR2 (Sec-TrxR2) (Q9JLT4 35-524): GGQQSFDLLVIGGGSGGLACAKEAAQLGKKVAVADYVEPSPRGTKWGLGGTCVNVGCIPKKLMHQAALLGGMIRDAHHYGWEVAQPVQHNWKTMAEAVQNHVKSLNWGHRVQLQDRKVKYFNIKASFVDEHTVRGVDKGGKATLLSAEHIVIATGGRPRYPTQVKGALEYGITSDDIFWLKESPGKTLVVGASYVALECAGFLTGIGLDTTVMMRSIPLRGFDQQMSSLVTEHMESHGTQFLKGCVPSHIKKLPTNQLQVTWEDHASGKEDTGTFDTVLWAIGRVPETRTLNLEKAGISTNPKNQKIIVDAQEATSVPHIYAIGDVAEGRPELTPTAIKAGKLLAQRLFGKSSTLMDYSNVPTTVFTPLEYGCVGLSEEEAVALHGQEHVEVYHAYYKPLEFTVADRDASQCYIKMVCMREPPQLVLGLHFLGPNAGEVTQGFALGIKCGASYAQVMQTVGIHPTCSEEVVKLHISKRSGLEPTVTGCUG
Method: as §1

16HBE cells = assay: Sec-TrxR inhibition and HOSCN toxicity in lung cells (LDH release); assay type: cell-based, human; conditions: auranofin 1 hour, then 300 μM HOSCN, viability 24 hours later
Method: FIG. 19. […] 16HBE cells were treated with auranofin at increasing concentrations for 1 hour and then exposed to 300 μM of either HOSCN or HOCl and viability was assessed by lactate dehydrogenase release 24 hours later. Vehicle (Veh).
Additional studies determine both leukocyte viability and bacterial viability after ^−SCN treatments and under simulated ^−SCN conditions with and without pharmacological inhibition of Sec-TrxR using auranofin and aurothioglucose (Rigobello, M. P., et al. (2008) Gold(I) complexes determine apoptosis with limited oxidative stress in Jurkat T cells. Eur J Pharmacol 582, 26-34). […] These assays have been described to study bacterial killing by neutrophils (Hampton, M. B., and Winterbourn, C. C. (1999) Methods for quantifying phagocytosis and bacterial killing by human neutrophils. J Immunol Methods 232, 15-22). Neutrophil death is assessed by flow cytometry using % of Annexin V (apoptosis marker) and propidium iodide (PI, necrosis marker) positive cells in each gate as shown in FIG. 7.

[2] = tested on: M. massiliense clinical isolate; assay: Exogenous catalase inhibition of LPO/SeCN killing of NTM; assay type: cell-based; conditions: high levels of catalase; 1 mM SeCN, 1600 mU/mL LPO
Method: FIG. 29A M. massiliense clinical isolate was incubated with 1 mM SeCN and either 1600 mU/mL LPO alone or with catalase.
It is well known that NTM species express catalase genes and have the ability to produce H2O2 (Wayne L G, Diaz G A. Detection of a novel catalase in extracts of Mycobacterium avium and Mycobacterium intracellulare. Infection and immunity. 1988; 56(4):936-41.). As H2O2 is a required substrate of LPO and no exogenous source of H2O2 is needed for LPO/—SeCN-mediated killing, it is expected that NTM provides the H2O2 for utilization by LPO to generate HOSeCN. The inventors have performed a set of experiments that provide evidence that endogenously produced H2O2 plays a role in the LPO/—SeCN-mediated killing of NTM. In FIG. 29, exogenous catalase is utilized in an attempt to inhibit the LPO-mediated generation of HOSeCN. At high levels of catalase, 100% of the killing was inhibited. The high levels of catalase required for inhibition may be due to several reasons, including instability of the enzyme on LB agar and the possibility that LPO may be bound to and concentrated on the bacterial surface, as has been previously described for Streptococci (Pruitt K M, et al. Lactoperoxidase binding to streptococci. Infection and immunity. 1979; 25(1):304-9). […]

Sequence of DmTrxR (containing Cys) (P91938 112-596 limits assumed): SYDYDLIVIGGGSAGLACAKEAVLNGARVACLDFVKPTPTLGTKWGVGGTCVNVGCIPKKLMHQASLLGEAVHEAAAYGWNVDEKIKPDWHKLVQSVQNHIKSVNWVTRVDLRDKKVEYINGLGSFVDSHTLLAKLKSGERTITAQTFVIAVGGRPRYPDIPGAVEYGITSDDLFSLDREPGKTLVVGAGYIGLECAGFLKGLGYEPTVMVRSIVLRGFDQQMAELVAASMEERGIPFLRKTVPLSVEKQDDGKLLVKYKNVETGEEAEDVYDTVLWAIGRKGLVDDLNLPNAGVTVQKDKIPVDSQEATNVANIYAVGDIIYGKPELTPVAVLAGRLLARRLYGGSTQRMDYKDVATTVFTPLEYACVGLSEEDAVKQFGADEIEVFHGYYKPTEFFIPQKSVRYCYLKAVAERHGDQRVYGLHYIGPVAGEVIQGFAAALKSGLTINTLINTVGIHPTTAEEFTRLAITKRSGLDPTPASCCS

OCl [HOCl, hypochlorite]
Inactivation of DmTrxR by oxidant (DmTrxR (containing Cys)): is inactivated | Inactivation of Sec-TrxR2 by oxidant [1]: resists inactivation

CC(=O)OC[C@H]1O[C@@H]([S-])[C@H](OC(C)=O)[C@@H](OC(C)=O)[C@@H]1OC(C)=O.CCP(CC)CC.[Au+] [auranofin]
Sensitization of lung cells to HOSCN-mediated toxicity (16HBE cells): sensitizes lung cells to HOSCN-mediated toxicity

catalase
Inhibition of LPO/SeCN-mediated killing [2]: 100%
